Experimental data from ChEMBL document CHEMBL5291721, “A preclinical secondary pharmacology resource illuminates target-adverse drug reaction associations of marketed drugs” (Nat Commun, 2023).
Where a SMILES comes first, the peptide text is derived from it.

Assays:
[1] = molecular target: Histamine H1 receptor (Homo sapiens, UniProt P35367)
[2] = molecular target: T1, 5-hydroxytryptamine receptor 3A (Homo sapiens, UniProt P46098); type: functional
T1 sequence (P46098 whole entry): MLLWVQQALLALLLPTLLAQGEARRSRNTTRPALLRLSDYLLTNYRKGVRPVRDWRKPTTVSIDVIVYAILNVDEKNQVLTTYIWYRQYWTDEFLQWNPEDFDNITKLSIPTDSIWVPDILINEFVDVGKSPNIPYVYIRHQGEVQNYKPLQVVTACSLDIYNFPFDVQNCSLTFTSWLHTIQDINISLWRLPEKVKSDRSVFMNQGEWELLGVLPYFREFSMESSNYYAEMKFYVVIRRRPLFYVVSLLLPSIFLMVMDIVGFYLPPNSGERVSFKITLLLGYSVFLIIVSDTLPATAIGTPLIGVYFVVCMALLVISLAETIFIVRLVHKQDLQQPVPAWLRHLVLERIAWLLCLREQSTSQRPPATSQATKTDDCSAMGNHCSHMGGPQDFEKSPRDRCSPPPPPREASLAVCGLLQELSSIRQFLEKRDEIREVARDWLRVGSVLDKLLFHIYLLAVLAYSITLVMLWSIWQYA

[3] = molecular target: D(1A) dopamine receptor (Homo sapiens, UniProt P21728); type: functional, cell-based
[4] = molecular target: Melanocortin receptor 3 (Homo sapiens, UniProt P41968)
[5] = molecular target: T2, Alpha-1A adrenergic receptor (Homo sapiens, UniProt P35348); type: functional, cell-based
T2 sequence (P35348 whole entry): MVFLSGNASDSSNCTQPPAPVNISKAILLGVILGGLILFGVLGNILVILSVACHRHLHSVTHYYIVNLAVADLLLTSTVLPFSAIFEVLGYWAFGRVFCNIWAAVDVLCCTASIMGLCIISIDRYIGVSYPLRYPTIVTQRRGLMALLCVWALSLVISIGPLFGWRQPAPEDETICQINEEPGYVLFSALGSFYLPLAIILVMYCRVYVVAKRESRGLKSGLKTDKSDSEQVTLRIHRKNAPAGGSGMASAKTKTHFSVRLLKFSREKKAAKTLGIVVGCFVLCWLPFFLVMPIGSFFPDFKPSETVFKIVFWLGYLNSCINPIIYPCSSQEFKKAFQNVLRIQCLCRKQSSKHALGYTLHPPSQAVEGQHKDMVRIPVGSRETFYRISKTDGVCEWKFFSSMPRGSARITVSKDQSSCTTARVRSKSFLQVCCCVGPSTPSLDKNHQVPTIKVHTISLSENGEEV

[6] = molecular target: T3, Neuropeptide Y receptor type 1 (Homo sapiens, UniProt P25929)
T3 sequence (P25929 whole entry): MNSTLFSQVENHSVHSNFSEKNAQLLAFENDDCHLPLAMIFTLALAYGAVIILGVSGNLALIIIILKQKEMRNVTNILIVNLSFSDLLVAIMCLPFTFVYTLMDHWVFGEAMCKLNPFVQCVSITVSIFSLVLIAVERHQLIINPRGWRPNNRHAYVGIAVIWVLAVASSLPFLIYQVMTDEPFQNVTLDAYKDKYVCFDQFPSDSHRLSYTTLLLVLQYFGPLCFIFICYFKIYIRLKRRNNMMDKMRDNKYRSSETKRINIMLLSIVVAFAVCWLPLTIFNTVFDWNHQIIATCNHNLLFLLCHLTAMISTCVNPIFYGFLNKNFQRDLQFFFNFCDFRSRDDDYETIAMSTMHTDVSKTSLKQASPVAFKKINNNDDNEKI

[7] = molecular target: Sodium-dependent noradrenaline transporter (Homo sapiens, UniProt P23975)
[8] = molecular target: T4, Cholecystokinin receptor type A (Homo sapiens, UniProt P32238)
T4 sequence (P32238 whole entry): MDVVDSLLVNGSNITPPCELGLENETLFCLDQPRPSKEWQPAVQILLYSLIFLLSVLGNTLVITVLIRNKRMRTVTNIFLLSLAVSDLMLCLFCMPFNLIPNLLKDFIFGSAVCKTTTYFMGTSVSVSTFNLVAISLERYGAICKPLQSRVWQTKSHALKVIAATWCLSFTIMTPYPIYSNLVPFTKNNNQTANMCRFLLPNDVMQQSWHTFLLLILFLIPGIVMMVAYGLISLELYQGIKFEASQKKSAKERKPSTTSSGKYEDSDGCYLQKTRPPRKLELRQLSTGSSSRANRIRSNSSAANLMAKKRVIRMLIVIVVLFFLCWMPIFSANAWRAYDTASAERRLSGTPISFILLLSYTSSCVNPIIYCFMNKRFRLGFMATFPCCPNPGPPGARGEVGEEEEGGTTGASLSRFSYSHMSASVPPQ

[9] = molecular target: T5, 5-hydroxytryptamine receptor 1A (Homo sapiens, UniProt P08908); type: functional, cell-based
T5 sequence (P08908 whole entry): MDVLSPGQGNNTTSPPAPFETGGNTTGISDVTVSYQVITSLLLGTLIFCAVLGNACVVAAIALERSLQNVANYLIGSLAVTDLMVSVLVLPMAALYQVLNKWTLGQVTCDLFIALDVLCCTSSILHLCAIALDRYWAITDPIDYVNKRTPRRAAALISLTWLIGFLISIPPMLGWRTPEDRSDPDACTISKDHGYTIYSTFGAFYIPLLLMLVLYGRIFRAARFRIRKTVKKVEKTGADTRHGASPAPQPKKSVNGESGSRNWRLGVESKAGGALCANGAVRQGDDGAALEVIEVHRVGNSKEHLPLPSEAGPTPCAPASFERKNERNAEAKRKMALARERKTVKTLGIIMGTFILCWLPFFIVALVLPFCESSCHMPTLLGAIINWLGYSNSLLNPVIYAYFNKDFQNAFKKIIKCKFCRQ

[10] = molecular target: Glutamate receptor ionotropic, NMDA 1 (Rattus norvegicus, UniProt P35439)
[11] = molecular target: 3',5'-cyclic-AMP phosphodiesterase 4D (Homo sapiens, UniProt Q08499); type: functional
Also: assay procedure not described here.

Sodium-dependent noradrenaline transporter, sequence (P23975 whole entry): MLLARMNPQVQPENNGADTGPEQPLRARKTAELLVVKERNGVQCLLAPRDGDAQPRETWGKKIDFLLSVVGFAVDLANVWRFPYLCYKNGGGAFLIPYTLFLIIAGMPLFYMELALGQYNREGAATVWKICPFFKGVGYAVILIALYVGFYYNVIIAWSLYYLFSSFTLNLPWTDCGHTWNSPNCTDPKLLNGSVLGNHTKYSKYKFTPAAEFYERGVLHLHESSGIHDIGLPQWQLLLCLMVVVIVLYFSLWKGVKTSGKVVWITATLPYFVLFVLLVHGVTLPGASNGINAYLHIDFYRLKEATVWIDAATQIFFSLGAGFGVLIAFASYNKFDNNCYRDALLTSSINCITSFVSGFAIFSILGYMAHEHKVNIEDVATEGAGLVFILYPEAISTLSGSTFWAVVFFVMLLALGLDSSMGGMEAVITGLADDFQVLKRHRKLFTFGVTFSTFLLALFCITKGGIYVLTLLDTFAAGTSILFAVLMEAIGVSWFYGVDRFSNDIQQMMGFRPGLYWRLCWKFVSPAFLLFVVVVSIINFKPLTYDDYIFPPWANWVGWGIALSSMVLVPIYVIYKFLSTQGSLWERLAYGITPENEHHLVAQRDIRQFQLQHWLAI
D(1A) dopamine receptor, sequence (P21728 whole entry): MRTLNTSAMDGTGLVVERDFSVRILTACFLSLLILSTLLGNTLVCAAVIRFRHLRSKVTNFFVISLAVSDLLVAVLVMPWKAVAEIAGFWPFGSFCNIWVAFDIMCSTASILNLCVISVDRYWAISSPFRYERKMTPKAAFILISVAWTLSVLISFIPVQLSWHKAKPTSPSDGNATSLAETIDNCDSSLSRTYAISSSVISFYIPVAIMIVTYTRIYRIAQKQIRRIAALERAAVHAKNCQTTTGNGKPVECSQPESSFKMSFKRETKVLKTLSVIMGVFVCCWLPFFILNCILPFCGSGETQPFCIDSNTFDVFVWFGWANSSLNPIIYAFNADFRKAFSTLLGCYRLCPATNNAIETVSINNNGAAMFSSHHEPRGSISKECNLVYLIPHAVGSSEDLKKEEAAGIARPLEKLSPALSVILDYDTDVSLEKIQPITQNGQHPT
3',5'-cyclic-AMP phosphodiesterase 4D, sequence (Q08499 whole entry): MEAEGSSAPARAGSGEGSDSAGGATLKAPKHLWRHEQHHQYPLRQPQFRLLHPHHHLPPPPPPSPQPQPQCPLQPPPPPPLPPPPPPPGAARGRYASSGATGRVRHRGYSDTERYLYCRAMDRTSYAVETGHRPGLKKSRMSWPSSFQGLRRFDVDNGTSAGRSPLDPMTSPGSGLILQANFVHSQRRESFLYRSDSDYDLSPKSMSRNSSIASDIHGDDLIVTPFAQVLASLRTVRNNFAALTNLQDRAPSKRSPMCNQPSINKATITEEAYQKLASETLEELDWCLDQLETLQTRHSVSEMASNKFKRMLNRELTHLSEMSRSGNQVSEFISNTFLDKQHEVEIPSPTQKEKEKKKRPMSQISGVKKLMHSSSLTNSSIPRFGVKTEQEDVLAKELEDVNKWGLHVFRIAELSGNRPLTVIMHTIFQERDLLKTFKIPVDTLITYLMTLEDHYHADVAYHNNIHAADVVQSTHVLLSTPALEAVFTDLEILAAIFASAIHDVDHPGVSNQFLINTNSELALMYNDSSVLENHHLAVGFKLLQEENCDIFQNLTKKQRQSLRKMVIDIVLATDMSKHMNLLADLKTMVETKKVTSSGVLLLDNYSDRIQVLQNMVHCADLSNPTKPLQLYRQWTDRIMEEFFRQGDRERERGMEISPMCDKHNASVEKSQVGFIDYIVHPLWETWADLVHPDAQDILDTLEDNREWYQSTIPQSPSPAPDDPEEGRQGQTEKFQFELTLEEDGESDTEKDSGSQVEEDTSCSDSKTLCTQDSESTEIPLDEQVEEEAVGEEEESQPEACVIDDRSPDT
Melanocortin receptor 3, sequence (P41968 whole entry): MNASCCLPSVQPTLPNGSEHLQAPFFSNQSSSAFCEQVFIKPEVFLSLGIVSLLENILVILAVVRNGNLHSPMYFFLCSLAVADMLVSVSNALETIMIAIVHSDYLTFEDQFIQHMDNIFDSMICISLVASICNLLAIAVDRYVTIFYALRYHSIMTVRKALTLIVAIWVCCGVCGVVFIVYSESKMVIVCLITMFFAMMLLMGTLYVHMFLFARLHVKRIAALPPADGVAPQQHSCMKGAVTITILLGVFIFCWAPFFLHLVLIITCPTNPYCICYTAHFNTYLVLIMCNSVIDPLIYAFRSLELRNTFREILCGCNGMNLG
Histamine H1 receptor, sequence (P35367 whole entry): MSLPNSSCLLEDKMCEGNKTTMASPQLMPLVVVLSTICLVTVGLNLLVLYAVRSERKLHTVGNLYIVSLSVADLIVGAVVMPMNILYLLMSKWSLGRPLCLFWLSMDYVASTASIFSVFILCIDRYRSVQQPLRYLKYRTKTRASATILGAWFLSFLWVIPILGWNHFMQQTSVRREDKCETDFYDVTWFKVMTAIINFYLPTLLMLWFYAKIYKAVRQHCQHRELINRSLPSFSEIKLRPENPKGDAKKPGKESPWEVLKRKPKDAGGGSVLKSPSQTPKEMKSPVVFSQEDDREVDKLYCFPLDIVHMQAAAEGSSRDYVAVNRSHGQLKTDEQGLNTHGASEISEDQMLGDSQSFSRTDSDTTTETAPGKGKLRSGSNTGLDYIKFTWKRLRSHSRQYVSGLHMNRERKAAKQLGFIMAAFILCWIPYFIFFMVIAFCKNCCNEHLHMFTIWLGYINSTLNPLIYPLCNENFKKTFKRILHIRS

| Compound | AC50 [1] | AC50 [2] | AC50 [3] | AC50 [4] | AC50 [5] | AC50 [6] | AC50 [7] | AC50 [8] | AC50 [9] | AC50 [10] | AC50 [11] |
| --- | --- | --- | --- | --- | --- | --- | --- | --- | --- | --- | --- |
| O=C(O)c1ccc2nc(-c3cc(Cl)cc(Cl)c3)oc2c1 | > 30 µM | > 30 µM | 12 µM | > 30 µM | > 30 µM | > 30 µM | > 30 µM | > 30 µM | > 30 µM | > 30 µM | 10.3 µM |
| C[C@H](N)C(=O)N[C@@H](CCC(N)=O)C(=O)O [ALANYL GLUTAMINE] (H-Ala-Gln-OH) | > 30 µM | > 30 µM | > 30 µM | > 30 µM | > 30 µM | > 30 µM | > 30 µM | > 30 µM | > 30 µM | > 30 µM | > 30 µM |
| COc1cc(N)cn[n+]1-c1ccccc1 [AMEZINIUM METILSULFATE] | > 30 µM | > 30 µM | > 30 µM | > 30 µM | 25 µM | > 30 µM | 3.9 µM | > 30 µM | > 30 µM | > 30 µM | > 30 µM |
| COc1ccc(-n2nc(C(N)=O)c3c2C(=O)N(c2ccc(N4CCCCC4=O)cc2)CC3)cc1 [APIXABAN] | > 30 µM | > 30 µM | > 30 µM | > 30 µM | > 30 µM | > 30 µM | > 30 µM | > 30 µM | > 30 µM | > 30 µM | > 30 µM |
| CCN(CC)CCCN(c1ccccc1)C1Cc2ccccc2C1 [APRINDINE] | 1.18 µM | > 30 µM | > 30 µM | > 30 µM | 14 µM | > 30 µM | 2.3 µM | > 30 µM | > 30 µM | > 30 µM | > 30 µM |
| C[C@@H](Cc1ccccc1)N(C)Cc1ccccc1 [BENZPHETAMINE] | > 10 µM | > 30 µM | > 10 µM | > 10 µM | 13 µM | > 10 µM | 0.036 µM | > 10 µM | > 10 µM | > 10 µM | > 30 µM |
| CO/N=C(\C(=O)N[C@@H]1C(=O)N2C(C(=O)O)=C(CSc3nc(C)c(CC(=O)O)s3)CS[C@H]12)c1csc(N)n1 [CEFODIZIME] | > 30 µM | > 30 µM | > 30 µM | > 30 µM | > 30 µM | > 30 µM | > 30 µM | > 30 µM | > 30 µM | > 30 µM | > 30 µM |
| CO/N=C(\C(=O)N[C@@H]1C(=O)N2C(C(=O)[O-])=C(C[n+]3ccc(N)n3CCO)CS[C@H]12)c1csc(N)n1 [CEFOSELIS] | > 30 µM | > 30 µM | > 30 µM | > 30 µM | 30 µM | > 30 µM | > 30 µM | > 30 µM | > 30 µM | > 30 µM | > 30 µM |
| CC(=O)OCC1=C(C(=O)O)N2C(=O)[C@@H](NC(=O)Cc3cccs3)[C@H]2SC1 [CEPHALOTHIN] | > 30 µM | > 30 µM | > 30 µM | > 30 µM | > 30 µM | > 30 µM | > 30 µM | > 30 µM | > 30 µM | > 30 µM | > 30 µM |
| CN1C(=O)CN=C(c2ccccc2F)c2cc([N+](=O)[O-])ccc21 [FLUNITRAZEPAM] | > 10 µM | > 10 µM | > 10 µM | 18.6 µM | > 30 µM | > 30 µM | > 10 µM | – | > 10 µM | > 10 µM | > 30 µM |
| CCC(NC(C)C)C(O)c1ccc(O)c(O)c1 (centres undefined) [ISOETHARINE] | > 30 µM | > 30 µM | > 30 µM | > 30 µM | – | > 30 µM | > 30 µM | > 30 µM | > 30 µM | > 30 µM | > 30 µM |
| CCC(=O)O[C@H](CC(=O)O)C[N+](C)(C)C [LEVOCARNITINE PROPIONATE] | > 30 µM | > 30 µM | > 30 µM | > 30 µM | – | > 30 µM | > 30 µM | > 30 µM | > 30 µM | > 30 µM | > 30 µM |
| CCC1(CC)C(=O)NC(=O)N(C)C1=O [METHARBITAL] | > 10 µM | > 30 µM | > 10 µM | > 10 µM | – | > 10 µM | > 10 µM | > 10 µM | > 10 µM | > 10 µM | > 30 µM |
| CC1NCCOC1c1ccccc1 (centres undefined) [PHENMETRAZINE] | > 10 µM | > 30 µM | > 10 µM | > 30 µM | – | > 30 µM | 11.4 µM | > 30 µM | > 10 µM | > 10 µM | > 30 µM |
| CCOC(=O)O[C@]1(C(=O)COC(=O)CC)CC[C@H]2[C@@H]3CCC4=CC(=O)C=C[C@]4(C)[C@H]3[C@@H](O)C[C@@]21C [PREDNICARBATE] | > 10 µM | > 30 µM | > 10 µM | > 10 µM | – | > 10 µM | > 10 µM | > 10 µM | > 10 µM | > 10 µM | > 30 µM |
| CCC(=O)[C@@]1(C)[C@H](C)C[C@H]2[C@@H]3CCC4=CC(=O)C=C[C@]4(C)[C@H]3[C@@H](O)C[C@@]21C [RIMEXOLONE] | > 10 µM | > 30 µM | > 10 µM | > 10 µM | – | > 10 µM | > 10 µM | > 10 µM | > 10 µM | > 10 µM | > 30 µM |
| TEPRENONE | > 10 µM | > 30 µM | > 10 µM | > 30 µM | > 30 µM | – | > 30 µM | > 30 µM | > 30 µM | > 10 µM | > 30 µM |
